Laboratory results published in US20130022629A1, “Modulators of Immunoinhibitory Receptor PD-1, and Methods of Use Thereof” (priority 2010, published 2013).
“Also recorded” adds a separate entry of the source.

Legend:
PD-1^−/− T cells = test: Specificity control: responses of PD-1^−/− (KO) T cells to compound; format: cell-based, mouse; details: PD-1^−/− T cells over the range of compound concentrations (FIG. 3)
Excerpt: In vitro assays to test for compounds that interfere with the PD-1 function have been developed. These assays utilize unique mouse strains to specifically identify PD-1-specific effects. For example, a transgenic mouse that constitutively expresses PD-1 on T cells (PD-1^C) has been developed (43). It has recently been disclosed that PD-1^C T cells are very susceptible to signaling through PD-1, as measured by a decrease in T cell proliferation and cytokine production. These PD-1^C T cells can be used to assess the functional effects of small molecules. A PD-1 deficient mouse (PD-1^−/−) has also been developed (44), and T cells from such mice will serve as useful controls for in vitro as well as in vivo studies. In certain embodiments, PD-1^C T cells are cultured with a proliferative stimulus (anti-CD3) plus either PD-L2-Ig or a negative control Ig fusion protein. […] The specificity of the effects of sulfamonomethoxine and sulfamethizole were assessed by comparing responses of wild type, PD-1^c, and PD-1^−/− T cells. The effects of sulfamonomethoxine and sulfamethizole were evaluated over a range of compound concentrations (dilution series from 16 nM to 80 μM) and analyzed their effects on T cell proliferation and cytokine production. […]

PD-1 [1] = biological target: T1, PD-1 (Mus musculus, UniProt Q02242); test: Validation (secondary screen): rescue of PD-1 mediated inhibition of IFN-γ production in PD-1^C (Tg) T cells; format: cell-based; details: PD-L2Ig versus control Ig (FIG. 3)
T1 construct: expressed in transfected cells; host or cells: CD4 T cells purified from spleens of PD-1^C transgenic mice (transgene-driven constitutive PD-1)
T1 sequence (Q02242 25-288): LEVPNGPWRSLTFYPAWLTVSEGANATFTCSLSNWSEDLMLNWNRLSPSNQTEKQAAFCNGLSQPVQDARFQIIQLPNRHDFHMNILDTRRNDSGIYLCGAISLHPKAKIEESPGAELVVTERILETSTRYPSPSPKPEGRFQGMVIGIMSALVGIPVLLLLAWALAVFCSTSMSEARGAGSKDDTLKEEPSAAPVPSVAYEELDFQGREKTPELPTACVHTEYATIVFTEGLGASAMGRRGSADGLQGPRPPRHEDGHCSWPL
Excerpt: In vitro assays to test for compounds that interfere with the PD-1 function have been developed. These assays utilize unique mouse strains to specifically identify PD-1-specific effects. For example, a transgenic mouse that constitutively expresses PD-1 on T cells (PD-1^C) has been developed (43). It has recently been disclosed that PD-1^C T cells are very susceptible to signaling through PD-1, as measured by a decrease in T cell proliferation and cytokine production. These PD-1^C T cells can be used to assess the functional effects of small molecules. A PD-1 deficient mouse (PD-1^−/−) has also been developed (44), and T cells from such mice will serve as useful controls for in vitro as well as in vivo studies.
In certain embodiments, PD-1^C T cells are cultured with a proliferative stimulus (anti-CD3) plus either PD-L2-Ig or a negative control Ig fusion protein. […]
The specificity of the effects of sulfamonomethoxine and sulfamethizole were assessed by comparing responses of wild type, PD-1^c, and PD-1^−/− T cells. The effects of sulfamonomethoxine and sulfamethizole were evaluated over a range of compound concentrations (dilution series from 16 nM to 80 μM) and analyzed their effects on T cell proliferation and cytokine production. […]

PD-1 [2] = biological target: T1, PD-1; test: Primary screen: IFN-γ production by PD-1^C T cells with plate-bound anti-CD3 plus PD-L2Ig or control Ig; format: cell-based; details: compared with negative control wells on the plate (FIG. 2)
Description: In certain embodiments, PD-1^C T cells are cultured with a proliferative stimulus (anti-CD3) plus either PD-L2-Ig or a negative control Ig fusion protein. PD-1^C T cells proliferate less and produce lower amounts of cytokines when cultured with PD-L2-Ig as compared to the negative control Ig fusion protein because PD-1-ligands deliver an inhibitory signal through PD-1. Compounds of interest will modulate this inhibitory interaction in wild type and PD-1^C T cells, but not in PD-1^−/− cells. Thus, compounds which are antagonists will block PD-1 inhibitory function and lead to increased T cell responses by wild type and PD-1^C T cells, but will not affect PD-1^−/− T cells. Conversely, compounds which are agonists will deliver an inhibitory signal, and reduce T cell responses by wild type and PD-1^C T cells, but not PD-1^−/− T cells.
Because it is believed that PD-1 can inhibit cytokine (IFN-γ) production to a greater extent than T cell proliferation in a number of situations (36, 44), in certain embodiments IFN-γ production was chosen as the readout, using a bead-based fluorescent ELISA assay. These beads have a broad dynamic range (about 1 pg/mL to about 5 ng/mL), robust detection of cytokines from complex solutions (including culture media), minimal time requirement (about 3 hours from start to finish), and homogeneous format (no washing required). […]

Row | Compound | effect on PD-1 KO T cells (PD-1^−/− T cells) | specificity: rescue/block of PD-1 mediated inhibition in PD-1 Tg cells (PD-1 [1]) | rescue of IFN-γ production in the primary screen (PD-1 [2])
1 | COc1cc(NS(=O)(=O)c2ccc(N)cc2)ncn1 [sulfamonomethoxine] | no effect | block of PD-1 mediated inhibition in PD-1 Tg cells only when PD-L2 was present; also recorded: rescue of PD-1 mediated inhibition in PD-1 Tg cells only when PD-L2 was present | rescue of IFN-γ production above the negative control wells
2 | Cc1nnc(NS(=O)(=O)c2ccc(N)cc2)s1 [sulfamethizole] | no effect | block of PD-1 mediated inhibition in PD-1 Tg cells only when PD-L2 was present; also recorded: rescue of PD-1 mediated inhibition in PD-1 Tg cells only when PD-L2 was present | rescue of IFN-γ production above the negative control wells
